Drawing on ChEMBL document CHEMBL1201862, “PubChem BioAssay data set” (2004), this text covers AC50, EC50 and IC50 for three molecules.

The structures appear in SMILES notation. Activity calls are given as the source filed them. Bounds are passed on as bounds.

In experiment [1] the target is T1, ORF 73 (Human herpesvirus 8, UniProt O40947).
T1 sequence (O40947 whole entry): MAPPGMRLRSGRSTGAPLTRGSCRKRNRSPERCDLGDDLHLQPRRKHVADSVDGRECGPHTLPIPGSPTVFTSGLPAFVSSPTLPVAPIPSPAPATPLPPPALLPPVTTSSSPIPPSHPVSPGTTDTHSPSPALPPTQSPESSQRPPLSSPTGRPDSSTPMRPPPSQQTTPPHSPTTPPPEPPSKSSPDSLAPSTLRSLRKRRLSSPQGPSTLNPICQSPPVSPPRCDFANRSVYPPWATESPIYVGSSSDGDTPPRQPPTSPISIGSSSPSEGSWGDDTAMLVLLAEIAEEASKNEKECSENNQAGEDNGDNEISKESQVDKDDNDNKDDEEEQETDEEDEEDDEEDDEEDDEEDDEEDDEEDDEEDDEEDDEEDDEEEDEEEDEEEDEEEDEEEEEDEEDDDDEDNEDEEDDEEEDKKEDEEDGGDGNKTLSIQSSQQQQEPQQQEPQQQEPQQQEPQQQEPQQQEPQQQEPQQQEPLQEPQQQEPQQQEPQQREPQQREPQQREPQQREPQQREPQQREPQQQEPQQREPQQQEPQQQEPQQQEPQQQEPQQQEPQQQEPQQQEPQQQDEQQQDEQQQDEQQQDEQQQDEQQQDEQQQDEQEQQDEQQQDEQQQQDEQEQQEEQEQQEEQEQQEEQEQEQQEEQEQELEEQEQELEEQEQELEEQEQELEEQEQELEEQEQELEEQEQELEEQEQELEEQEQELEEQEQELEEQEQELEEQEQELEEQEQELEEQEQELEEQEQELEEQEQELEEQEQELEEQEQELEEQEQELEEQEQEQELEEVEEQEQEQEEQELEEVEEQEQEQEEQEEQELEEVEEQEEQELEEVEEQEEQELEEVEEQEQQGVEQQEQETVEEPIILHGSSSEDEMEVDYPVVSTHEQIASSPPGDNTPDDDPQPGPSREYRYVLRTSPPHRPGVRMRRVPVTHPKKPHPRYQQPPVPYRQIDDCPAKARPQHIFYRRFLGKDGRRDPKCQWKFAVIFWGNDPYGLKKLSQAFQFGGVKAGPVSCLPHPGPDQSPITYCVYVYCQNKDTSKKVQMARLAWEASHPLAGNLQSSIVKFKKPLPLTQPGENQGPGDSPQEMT
As to the kind of experiment: inhibitors of C-LANA binding to LBS DNA, dose response, biochemical, fluorescence polarization, cherry-picked samples (AID 504725).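 Further: fluorescence polarization of a labeled DNA duplex reporting LANA DNA binding; potency is for inhibitors that block LANA binding to the DNA.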 The arrangement: species or system Human gammaherpesvirus 8. For orientation: Fluorescence polarisation rises when a labelled molecule tumbles more slowly, as on binding a larger partner.

Experiment [2] has as its system HEK293. As to the kind of experiment: optical interference in Abeta FP readout, dose response, artefact control for IDE activator project, biochemical, fluorescence polarization (AID 588442). It counts as functional, cell-based. The settings on record: Homo sapiens.
The target of experiment [3] is Dual specificity tyrosine-phosphorylation-regulated kinase 1A (Rattus norvegicus, UniProt Q63470). The format is biochemical, Homo sapiens.
Experiment [4] concerns Streptococcus sp. 'group A'. Nature of the experiment: growth inhibition of control SK(-) GAS strain, dose response, counter-screen for streptokinase expression inhibitor project, luminescence, kanamycin, BacTiterGlo, confirmation (AID 1900). It counts as functional, organism-based.
Experiment [5] has as its system HEK293. Nature of the experiment: inhibitors of LMP1-driven NF-kB reporter, dose response, cell-based, HEK293, luciferase, cherry-pick (AID 588343). The following applies: Homo sapiens. It counts as functional.
Experiment [6] has as its target T2, Streptokinase A (Streptococcus pyogenes serotype M1, UniProt P10520).
T2 sequence (P10520 whole entry): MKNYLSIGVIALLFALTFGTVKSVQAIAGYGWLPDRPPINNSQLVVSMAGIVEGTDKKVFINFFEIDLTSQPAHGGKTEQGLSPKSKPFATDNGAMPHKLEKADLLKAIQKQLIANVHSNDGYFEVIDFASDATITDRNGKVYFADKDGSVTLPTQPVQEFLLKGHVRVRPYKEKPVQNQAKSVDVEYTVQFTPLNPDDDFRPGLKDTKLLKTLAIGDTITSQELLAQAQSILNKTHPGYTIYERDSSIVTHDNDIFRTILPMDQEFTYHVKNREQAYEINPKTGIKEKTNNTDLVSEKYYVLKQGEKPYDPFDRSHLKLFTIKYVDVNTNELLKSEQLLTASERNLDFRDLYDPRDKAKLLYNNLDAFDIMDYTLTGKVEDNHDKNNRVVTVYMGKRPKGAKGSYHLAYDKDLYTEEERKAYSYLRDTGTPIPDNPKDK
As to the kind of experiment: S. pyogenes streptokinase expression inhibitors, potency, dose response, plasminogen activation absorbance, OD405 (AID 1914).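 Further: secreted streptokinase activity via plasminogen activation per viability signal from cell pellet.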 The format is functional, Streptococcus pyogenes M1 GAS.

Experiment [7] has as its target T3, Zinc finger protein mex-5 (Caenorhabditis elegans, UniProt Q9XUB2).
T3 sequence (Q9XUB2 whole entry): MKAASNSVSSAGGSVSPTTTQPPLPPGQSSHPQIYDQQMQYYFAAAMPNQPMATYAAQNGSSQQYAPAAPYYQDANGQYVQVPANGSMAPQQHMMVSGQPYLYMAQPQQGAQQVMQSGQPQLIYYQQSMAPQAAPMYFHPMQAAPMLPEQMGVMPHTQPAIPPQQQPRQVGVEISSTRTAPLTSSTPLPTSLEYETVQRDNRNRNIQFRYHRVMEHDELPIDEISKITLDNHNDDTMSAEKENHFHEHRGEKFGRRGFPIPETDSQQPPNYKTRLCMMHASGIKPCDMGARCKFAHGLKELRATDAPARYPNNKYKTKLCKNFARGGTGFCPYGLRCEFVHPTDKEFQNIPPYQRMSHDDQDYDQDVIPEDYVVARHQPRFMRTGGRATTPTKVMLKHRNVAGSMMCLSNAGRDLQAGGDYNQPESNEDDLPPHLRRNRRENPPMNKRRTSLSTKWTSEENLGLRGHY
Nature of the experiment: MEX-5/TCR-2 RNA interaction inhibitors, dose response, biochemical, C. elegans, fluorescence polarization (AID 1960).

Experiment [8] deals with T4, RNA-binding protein pos-1 (Caenorhabditis elegans, UniProt G5EF15).
T4 sequence (G5EF15 whole entry): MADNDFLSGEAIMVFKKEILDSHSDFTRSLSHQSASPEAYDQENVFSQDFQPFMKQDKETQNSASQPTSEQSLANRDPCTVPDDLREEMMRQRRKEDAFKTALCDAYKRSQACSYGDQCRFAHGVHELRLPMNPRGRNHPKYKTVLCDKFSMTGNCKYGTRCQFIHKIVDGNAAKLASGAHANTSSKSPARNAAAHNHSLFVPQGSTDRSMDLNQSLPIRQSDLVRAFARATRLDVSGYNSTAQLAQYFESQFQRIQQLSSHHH
Nature of the experiment: inhibitors of POS-1/mex-3 RNA binding, dose response, biochemical, fluorescence polarization (AID 1964).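 Further: purified POS-1 fused to maltose binding protein made in E. coli; potency of compounds blocking POS-1 binding to fluorescent RNA.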

Experiment [9] concerns the target Exodeoxyribonuclease V (Escherichia coli (strain K12), UniProt P04993+P07648+P08394). Nature of the experiment: E. coli RecBCD inhibitors, dose response, counter-screen for AddAB inhibitor project, absorbance, V66 E. coli, mutant T4 phage (AID 492957). It counts as functional, cell-based, Escherichia coli str. K-12 substr. MG1655.
Experiment [10] has as its target Likely tRNA 2'-phosphotransferase (Candida albicans (strain SC5314 / ATCC MYA-2876) (Yeast), UniProt Q5A7N4). As to the kind of experiment: TPT1 tRNA phosphotransferase inhibitors, dose response, biochemical, fluorescence polarization (AID 2160).
Experiment [11] has as its target Eukaryotic translation initiation factor 4E (Mus musculus, UniProt P63073). As to the kind of experiment: eIF4E–eIF4G protein interaction inhibitors, dose response, biochemical, TR-FRET (AID 855).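 Further: potency for disrupting eIF4E binding to eIF4GI seen as loss of FRET.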 The format is functional.

Sequence of Exodeoxyribonuclease V (P04993 whole entry): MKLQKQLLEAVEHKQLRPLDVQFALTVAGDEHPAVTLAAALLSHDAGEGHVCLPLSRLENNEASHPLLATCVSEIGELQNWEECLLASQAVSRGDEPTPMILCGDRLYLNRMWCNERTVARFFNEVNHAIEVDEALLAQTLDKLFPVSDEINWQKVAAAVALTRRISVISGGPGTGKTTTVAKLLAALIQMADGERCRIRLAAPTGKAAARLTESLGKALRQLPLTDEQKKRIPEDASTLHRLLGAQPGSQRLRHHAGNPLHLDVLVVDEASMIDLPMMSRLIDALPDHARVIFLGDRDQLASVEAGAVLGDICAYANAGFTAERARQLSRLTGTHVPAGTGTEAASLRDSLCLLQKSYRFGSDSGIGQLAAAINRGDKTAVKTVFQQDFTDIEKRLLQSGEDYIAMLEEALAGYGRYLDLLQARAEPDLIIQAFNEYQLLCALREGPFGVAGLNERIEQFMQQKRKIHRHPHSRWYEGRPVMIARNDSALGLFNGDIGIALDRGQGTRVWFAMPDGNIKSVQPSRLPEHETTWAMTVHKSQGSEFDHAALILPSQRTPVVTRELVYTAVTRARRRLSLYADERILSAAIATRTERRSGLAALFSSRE
Sequence of Exodeoxyribonuclease V (P07648 whole entry): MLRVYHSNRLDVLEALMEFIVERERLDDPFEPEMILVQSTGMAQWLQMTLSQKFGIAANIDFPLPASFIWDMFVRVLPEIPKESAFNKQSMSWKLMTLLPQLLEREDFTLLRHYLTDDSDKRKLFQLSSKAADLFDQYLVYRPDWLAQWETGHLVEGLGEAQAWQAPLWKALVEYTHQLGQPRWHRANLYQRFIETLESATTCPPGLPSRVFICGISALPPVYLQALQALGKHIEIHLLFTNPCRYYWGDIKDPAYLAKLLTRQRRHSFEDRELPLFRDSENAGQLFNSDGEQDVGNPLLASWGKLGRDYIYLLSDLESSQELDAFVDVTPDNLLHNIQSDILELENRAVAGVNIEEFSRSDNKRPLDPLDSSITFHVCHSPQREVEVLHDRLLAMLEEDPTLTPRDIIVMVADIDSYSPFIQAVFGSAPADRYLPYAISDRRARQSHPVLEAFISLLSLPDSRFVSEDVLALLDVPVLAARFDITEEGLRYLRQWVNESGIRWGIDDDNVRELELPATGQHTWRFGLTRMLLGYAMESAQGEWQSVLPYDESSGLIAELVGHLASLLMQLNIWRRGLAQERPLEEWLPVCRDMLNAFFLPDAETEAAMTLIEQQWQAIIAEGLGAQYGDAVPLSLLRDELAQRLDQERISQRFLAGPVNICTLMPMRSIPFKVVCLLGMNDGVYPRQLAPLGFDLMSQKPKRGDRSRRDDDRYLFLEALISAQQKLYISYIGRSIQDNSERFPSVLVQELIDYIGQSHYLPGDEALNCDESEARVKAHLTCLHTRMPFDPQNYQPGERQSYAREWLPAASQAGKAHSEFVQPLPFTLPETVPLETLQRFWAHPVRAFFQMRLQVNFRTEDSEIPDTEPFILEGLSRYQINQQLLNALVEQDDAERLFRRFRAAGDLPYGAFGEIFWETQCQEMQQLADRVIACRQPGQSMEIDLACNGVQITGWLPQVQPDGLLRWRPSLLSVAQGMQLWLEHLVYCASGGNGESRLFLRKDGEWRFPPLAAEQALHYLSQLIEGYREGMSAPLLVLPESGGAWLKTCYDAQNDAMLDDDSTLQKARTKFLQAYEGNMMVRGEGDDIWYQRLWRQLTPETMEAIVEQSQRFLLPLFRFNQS
Sequence of Exodeoxyribonuclease V (P08394 whole entry): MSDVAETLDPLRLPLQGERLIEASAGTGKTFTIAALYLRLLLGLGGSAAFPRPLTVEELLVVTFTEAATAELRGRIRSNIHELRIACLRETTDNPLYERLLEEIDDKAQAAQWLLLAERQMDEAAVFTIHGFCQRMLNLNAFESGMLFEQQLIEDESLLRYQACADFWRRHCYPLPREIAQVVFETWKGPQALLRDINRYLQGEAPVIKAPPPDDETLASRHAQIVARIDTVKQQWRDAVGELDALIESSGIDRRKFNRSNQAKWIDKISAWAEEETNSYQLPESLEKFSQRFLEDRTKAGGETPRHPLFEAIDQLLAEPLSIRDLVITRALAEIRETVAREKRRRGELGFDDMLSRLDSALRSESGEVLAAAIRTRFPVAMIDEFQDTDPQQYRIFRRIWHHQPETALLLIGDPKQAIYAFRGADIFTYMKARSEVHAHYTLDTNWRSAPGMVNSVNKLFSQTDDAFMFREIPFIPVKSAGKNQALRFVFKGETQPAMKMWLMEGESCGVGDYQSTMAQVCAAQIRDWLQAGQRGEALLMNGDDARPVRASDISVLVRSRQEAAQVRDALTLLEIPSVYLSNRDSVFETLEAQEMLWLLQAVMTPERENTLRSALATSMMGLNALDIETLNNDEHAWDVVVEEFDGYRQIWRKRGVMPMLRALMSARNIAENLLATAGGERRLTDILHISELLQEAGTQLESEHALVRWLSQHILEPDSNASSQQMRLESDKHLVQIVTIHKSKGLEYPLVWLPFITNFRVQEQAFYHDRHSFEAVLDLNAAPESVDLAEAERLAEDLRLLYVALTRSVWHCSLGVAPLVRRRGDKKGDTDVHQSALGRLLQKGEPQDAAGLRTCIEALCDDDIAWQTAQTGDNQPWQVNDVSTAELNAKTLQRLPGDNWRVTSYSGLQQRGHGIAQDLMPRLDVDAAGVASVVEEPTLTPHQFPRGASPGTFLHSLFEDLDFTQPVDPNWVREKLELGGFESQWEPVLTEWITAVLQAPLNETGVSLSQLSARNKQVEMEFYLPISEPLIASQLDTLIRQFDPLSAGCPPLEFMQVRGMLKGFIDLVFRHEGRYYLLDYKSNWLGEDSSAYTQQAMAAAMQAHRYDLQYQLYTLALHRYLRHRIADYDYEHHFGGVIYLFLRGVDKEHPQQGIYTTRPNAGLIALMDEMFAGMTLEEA
Sequence of Likely tRNA 2'-phosphotransferase (Q5A7N4 whole entry): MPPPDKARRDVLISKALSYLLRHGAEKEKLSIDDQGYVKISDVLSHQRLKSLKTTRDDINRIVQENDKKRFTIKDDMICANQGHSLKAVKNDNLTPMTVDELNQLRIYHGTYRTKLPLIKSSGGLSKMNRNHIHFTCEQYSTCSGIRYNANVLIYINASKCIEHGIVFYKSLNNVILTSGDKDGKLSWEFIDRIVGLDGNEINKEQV
Sequence of Eukaryotic translation initiation factor 4E (P63073 whole entry): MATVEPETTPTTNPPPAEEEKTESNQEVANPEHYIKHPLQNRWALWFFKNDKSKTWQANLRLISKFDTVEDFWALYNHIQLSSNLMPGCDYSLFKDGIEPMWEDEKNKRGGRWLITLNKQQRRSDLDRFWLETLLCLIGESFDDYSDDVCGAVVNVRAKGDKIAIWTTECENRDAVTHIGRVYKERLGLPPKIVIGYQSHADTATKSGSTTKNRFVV

What is called AC50 is the concentration at which the activity in the assay is half-maximal. For orientation: EC50 means the concentration at which the effect is half-maximal. Turning to `O=C1CCN2C=Nc3cccc4ccc1c2c34`, the AC50 was 1.42 µM (active) in [1] and 3 µM (active) in [3]. Also, in experiment [2], the EC50 was 17 µM (inactive).
By IC50 is commonly meant the concentration needed to halve the response being measured. On to `Oc1ccc2ccccc2c1/C=N/Nc1nnc(-c2ncc[nH]2)c2ccccc12`, for which the EC50 in [4] is 1.98 µM (active); in experiment [6] it was 5.52 µM (active); in [7], 2.45 µM (active); in experiment [8] it was 48.7 µM (inconclusive). In experiment [5], the AC50 was 1.79 µM (active). Further, the IC50 in experiment [9] is > 119 µM (inactive).
With `CC(C)C(C(=O)O)N1C(=O)/C(=C/C=C/c2ccco2)SC1=S` (centres undefined), the IC50 in experiment [10] is 20.5 µM (not active); in experiment [11] it was 11.3 µM (active). In experiment [1], the AC50 was 45.6 µM (active). Further, the concentration for a half-maximal effect (EC50) in experiment [7] was 19.4 µM (inconclusive); in experiment [8] it was 11 µM (inconclusive).
